Assay results: PubChem BioAssay AID1963828 (Molecular Pharmacology Branch, DTP, NCI, 2024)

Test system: 991263-137-R1-J2-PDC complex spheroid viability
Assay: Anticancer human tumor 991263-137-R1-J2-PDC patient-derived colon adenocarcinoma cell line growth inhibition [POLQ]
Details: for IC50: curve of first compound; for viability, T/C: stronger effect = lower value
In short: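 Patient-derived tumour cells were co-cultured with HUVEC and mesenchymal stem cells as multicellular spheroids at 37 °C. They were treated with POLQ inhibitors (novobiocin, ART-558, RP6685) alone or combined with other agents. Top concentrations were at or near clinical Cmax (otherwise 10 microM; SN-38 at 1 microM), decreasing in half-log steps.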

[1] = second compound 0.0316 µM, first compound 0.0316 µM
[2] = second compound 0.0316 µM, first compound 0.1 µM
[3] = second compound 0.0316 µM, first compound 0.316 µM
[4] = second compound 0.0316 µM, first compound 1 µM
[5] = second compound 0.0316 µM, first compound 3.16 µM
[6] = second compound 0.0316 µM, first compound 10 µM
[7] = second compound 0.1 µM, first compound 0.0316 µM
[8] = second compound 0.1 µM, first compound 0.1 µM
[9] = second compound 0.1 µM, first compound 0.316 µM
[10] = second compound 0.1 µM, first compound 1 µM
[11] = second compound 0.1 µM, first compound 3.16 µM
[12] = second compound 0.1 µM, first compound 10 µM
[13] = second compound 0.316 µM, first compound 0.0316 µM
[14] = second compound 0.316 µM, first compound 0.1 µM
[15] = second compound 0.316 µM, first compound 0.316 µM
[16] = second compound 0.316 µM, first compound 1 µM
[17] = second compound 0.316 µM, first compound 3.16 µM
[18] = second compound 0.316 µM, first compound 10 µM
[19] = second compound 1 µM, first compound 0.0316 µM
[20] = second compound 1 µM, first compound 0.1 µM
[21] = second compound 1 µM, first compound 0.316 µM
[22] = second compound 1 µM, first compound 1 µM
[23] = second compound 1 µM, first compound 3.16 µM
[24] = second compound 1 µM, first compound 10 µM
[25] = second compound 3.16 µM, first compound 0.0316 µM
[26] = second compound 3.16 µM, first compound 0.1 µM
[27] = second compound 3.16 µM, first compound 0.316 µM
[28] = second compound 3.16 µM, first compound 1 µM
[29] = second compound 3.16 µM, first compound 3.16 µM
[30] = second compound 3.16 µM, first compound 10 µM
[31] = second compound 10 µM, first compound 0.0316 µM
[32] = second compound 10 µM, first compound 0.1 µM
[33] = second compound 10 µM, first compound 0.316 µM
[34] = second compound 10 µM, first compound 1 µM
[35] = second compound 10 µM, first compound 3.16 µM
[36] = second compound 10 µM, first compound 10 µM
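Note: spheroids exposed to compounds for 7 days before readout.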
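Throughout, for viability, T/C: 100% = DMSO vehicle control viability.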

CC(=O)O[C@H]1C(=O)[C@@]2(C)[C@H]([C@H](OC(=O)c3ccccc3)[C@]3(O)C[C@H](OC(=O)[C@H](O)[C@@H](NC(=O)c4ccccc4)c4ccccc4)C(C)=C1C3(C)C)[C@]1(OC(C)=O)CO[C@@H]1C[C@@H]2O + Cc1cccc(N(C)C(=O)C2C(O)CCN2c2nc(C)cc(C(F)(F)F)c2C#N)c1
IC50 (second compound 0.0316 µM): 1.36 µM
IC50 (second compound 0.1 µM): 1.83 µM
IC50 (second compound 0.316 µM): 1.04 µM
IC50 (second compound 1 µM): 0.825 µM
IC50 (second compound 3.16 µM): 1.51 µM
IC50 (second compound 10 µM): 0.295 µM
viability, T/C (second compound 0.0316 µM, first compound 0.00949 µM): 80.4%
viability, T/C (second compound 0.0316 µM, first compound 0.03 µM): 85.6%
viability, T/C (second compound 0.0316 µM, first compound 0.0949 µM): 85.2%
viability, T/C (second compound 0.0316 µM, first compound 0.3 µM): 67.5%
viability, T/C (second compound 0.0316 µM, first compound 0.949 µM): 53.2%
viability, T/C (second compound 0.0316 µM, first compound 3 µM): 46.1%
viability, T/C (second compound 0.1 µM, first compound 0.00949 µM): 93.4%
viability, T/C (second compound 0.1 µM, first compound 0.03 µM): 92.5%
viability, T/C (second compound 0.1 µM, first compound 0.0949 µM): 84.2%
viability, T/C (second compound 0.1 µM, first compound 0.3 µM): 74%
viability, T/C (second compound 0.1 µM, first compound 0.949 µM): 57.9%
viability, T/C (second compound 0.1 µM, first compound 3 µM): 44%
viability, T/C (second compound 0.316 µM, first compound 0.00949 µM): 85.8%
viability, T/C (second compound 0.316 µM, first compound 0.03 µM): 86.3%
viability, T/C (second compound 0.316 µM, first compound 0.0949 µM): 83.4%
viability, T/C (second compound 0.316 µM, first compound 0.3 µM): 74.1%
viability, T/C (second compound 0.316 µM, first compound 0.949 µM): 50.1%
viability, T/C (second compound 0.316 µM, first compound 3 µM): 46.1%
viability, T/C (second compound 1 µM, first compound 0.00949 µM): 82.6%
viability, T/C (second compound 1 µM, first compound 0.03 µM): 89.2%
viability, T/C (second compound 1 µM, first compound 0.0949 µM): 85%
viability, T/C (second compound 1 µM, first compound 0.3 µM): 63.2%
viability, T/C (second compound 1 µM, first compound 0.949 µM): 51.3%
viability, T/C (second compound 1 µM, first compound 3 µM): 42.8%
viability, T/C (second compound 3.16 µM, first compound 0.00949 µM): 87.3%
viability, T/C (second compound 3.16 µM, first compound 0.03 µM): 79.5%
viability, T/C (second compound 3.16 µM, first compound 0.0949 µM): 80.7%
viability, T/C (second compound 3.16 µM, first compound 0.3 µM): 63.8%
viability, T/C (second compound 3.16 µM, first compound 0.949 µM): 56%
viability, T/C (second compound 3.16 µM, first compound 3 µM): 42.1%
viability, T/C (second compound 10 µM, first compound 0.00949 µM): 79.9%
viability, T/C (second compound 10 µM, first compound 0.03 µM): 88.4%
viability, T/C (second compound 10 µM, first compound 0.0949 µM): 69.5%
viability, T/C (second compound 10 µM, first compound 0.3 µM): 51.6%
viability, T/C (second compound 10 µM, first compound 0.949 µM): 50.7%
viability, T/C (second compound 10 µM, first compound 3 µM): 46.7%

COc1cc(C2c3cc4c(cc3C(OC3OC5COC(C)OC5C(O)C3O)C3COC(=O)C23)OCO4)cc(OC)c1O (stereo unspecified) + Cc1cccc(N(C)C(=O)C2C(O)CCN2c2nc(C)cc(C(F)(F)F)c2C#N)c1
IC50 (second compound 0.0316 µM): > 10 µM
IC50 (second compound 0.1 µM): > 10 µM
IC50 (second compound 0.316 µM): > 10 µM
IC50 (second compound 1 µM): > 10 µM
IC50 (second compound 3.16 µM): > 10 µM
IC50 (second compound 10 µM): > 10 µM
viability, T/C [1]: 115%
viability, T/C [2]: 99%
viability, T/C [3]: 87.1%
viability, T/C [4]: 90.5%
viability, T/C [5]: 102%
viability, T/C [6]: 84.7%
viability, T/C [7]: 95.2%
viability, T/C [8]: 103%
viability, T/C [9]: 75.8%
viability, T/C [10]: 98.1%
viability, T/C [11]: 86.3%
viability, T/C [12]: 73.1%
viability, T/C [13]: 104%
viability, T/C [14]: 102%
viability, T/C [15]: 109%
viability, T/C [16]: 95.8%
viability, T/C [17]: 94.4%
viability, T/C [18]: 87.2%
viability, T/C [19]: 104%
viability, T/C [20]: 109%
viability, T/C [21]: 105%
viability, T/C [22]: 106%
viability, T/C [23]: 84.8%
viability, T/C [24]: 85.7%
viability, T/C [25]: 97.2%
viability, T/C [26]: 107%
viability, T/C [27]: 92.3%
viability, T/C [28]: 99.2%
viability, T/C [29]: 102%
viability, T/C [30]: 76.8%
viability, T/C [31]: 117%
viability, T/C [32]: 96.3%
viability, T/C [33]: 73.6%
viability, T/C [34]: 89.1%
viability, T/C [35]: 84.9%
viability, T/C [36]: 71.1%

O=c1[nH]cc(F)c(=O)[nH]1 + Cc1cccc(N(C)C(=O)C2C(O)CCN2c2nc(C)cc(C(F)(F)F)c2C#N)c1
IC50 (second compound 0.0316 µM): > 10 µM
IC50 (second compound 0.1 µM): > 10 µM
IC50 (second compound 0.316 µM): > 10 µM
IC50 (second compound 1 µM): > 10 µM
IC50 (second compound 3.16 µM): > 10 µM
IC50 (second compound 10 µM): > 10 µM
viability, T/C [1]: 102%
viability, T/C [2]: 116%
viability, T/C [3]: 94%
viability, T/C [4]: 75.6%
viability, T/C [5]: 74.8%
viability, T/C [6]: 84.3%
viability, T/C [7]: 107%
viability, T/C [8]: 90.7%
viability, T/C [9]: 79.6%
viability, T/C [10]: 93.4%
viability, T/C [11]: 85.8%
viability, T/C [12]: 82.3%
viability, T/C [13]: 124%
viability, T/C [14]: 101%
viability, T/C [15]: 93%
viability, T/C [16]: 83.3%
viability, T/C [17]: 77.2%
viability, T/C [18]: 80.9%
viability, T/C [19]: 110%
viability, T/C [20]: 108%
viability, T/C [21]: 97.3%
viability, T/C [22]: 90.8%
viability, T/C [23]: 85.4%
viability, T/C [24]: 76%
viability, T/C [25]: 108%
viability, T/C [26]: 94.8%
viability, T/C [27]: 102%
viability, T/C [28]: 90.2%
viability, T/C [29]: 82.5%
viability, T/C [30]: 62.2%
viability, T/C [31]: 115%
viability, T/C [32]: 95.4%
viability, T/C [33]: 94.1%
viability, T/C [34]: 70%
viability, T/C [35]: 85%
viability, T/C [36]: 69.6%
